The record followed here is US20120225837A1, “MEDICINAL AGENT FOR DISEASE ASSOCIATED WITH EPSTEIN-BARR VIRUS, AND METHOD FOR SCREENING OF THE MEDICINAL AGENT” (Kyoto University, priority 2007, published 2012).

Where two headings read alike, the source gives them in different places.

For one data set, the system named is 143B/EB virus-TK cells. The data set is described as follows: cells. As to conditions: read-out: CC50 143B/EB Virus-TK. An excerpt:
(§1) At first, a primer was designed on the basis of the data base information of NCBI, followed by extracting DNA from B95a cells (J. Virol. 1990; 64(2): 700-5), and the TK gene of an EB virus was amplified by PCR method and cloned in the multicloning site of an expression plasmid vector pCI-neo (pCI-EB-TKneo). Similarly, human-TK gene was also amplified by PCR method and cloned (pCI-huTKneo). Whether the cloned gene fragment was a desired gene or not was judged by determining the base sequence.
(§2) Then, TK-defect human osteosarcoma cells (143B) was transfected by lipofection method (Proc. Natl. Acad. Sci. USA 1987 November; 84(21): 7413-7) with the plasmid vector capable of expressing EB virus-TK gene or the plasmid vector capable of expressing human-TK gene, namely, pCI-EB-TKneo or pCI-huTKneo, and cells having each plasmid introduced therein were selected by the use of neomycin.
(§3) The drug sensitivity of 143B/EB virus-TK, 143B/hu-TK, 143B TK(−) cells and EB virus persistent infection cells was determined on the basis of the cytotoxicity of each drug. That is, cells (143B/EB virus-TK, 143B/hu-TK and 143B TK(−) cells: 5×10^4 cells/100 μl; EB virus persistent infection cells: 20×10^4 cells/100 μl) were added to 96-well flat-bottom culture plates containing 100 μl of various concentrations of each drug. After 5 days of culture, the number of surviving cells was determined by MTT [3-(4,5-dimethylthiazol-2-yl)-2,5-diphenyltetrazolium bromide] assay. The cytotoxicity of the test drugs is expressed in terms of a concentration (CC50) at which the cell viability was decreased to 50%.

A further data set deals with 143B/hu-TK cells. The data set is described as follows: MTT cytotoxicity assay, cell having human-TK gene introduced. In kind it is cell-based.
Excerpt: as §1, §2, §3

Assay in data set [1]: as above
The note with it: human. It counts as cell-based.
Excerpt: as §1, §2, §3

For the next data set, the system named is HS-Sultan cells. The data set is described as follows: MTT cytotoxic effect on EB virus infection cancer cells (HS-Sultan). It counts as cell-based. The note with it: expression of TK −, MTT assay. Here is the method: as §3
(§4) The cytotoxic effect of the medicinal agent of the present invention on EB virus infection cancer cells such as NC37 cells was investigated by MTT assay. […] However, neither of them was effective in cells in which EB virus-TK gene had not been expressed.
(In general: Tetrazolium dyes change colour on reduction, which living cells bring about.)

The next data set deals with Namalwa cells. The data set is described as follows: MTT cytotoxic effect on EB virus infection cancer cells (Namalwa). As to conditions: expression of TK −, MTT assay. It counts as cell-based. On the procedure: as §3, §4
The next data set concerns B95a cells. The data set is described as follows: MTT cytotoxic effect on EB virus infection cancer cells (B95a). It counts as cell-based. The note with it: expression of TK +, MTT assay. On the procedure:
as §3, §4

A further data set has as its system KAI3 cells. The data set is described as follows: MTT assay on cells with a chronic active EB virus infectious disease. It counts as cell-based. On the procedure:
as §3
A chronic active EB virus infectious disease is an unfavorable infectious disease caused by infection of not B cells but natural killer T cells (NKT cells) with an EB virus. As such a chronic infection cell strain, KAI3 cells (Clin. Exp. Immunol. 1999 March; 115(3): 385-92) were purchased from Health Science Research Resources Bank, and the effect of the medicinal agent of the present invention on them was investigated by MTT assay. GCV was used as a control agent.

The test system of the next data set is NC37 cells. The data set is described as follows: MTT cytotoxic effect on EB virus infection cancer cells (NC37). It counts as cell-based. The note with it: NC37, expression of TK +, MTT assay. Here is the method:
as §3, §4

In a further data set the test system is Raji cells. The data set is described as follows: MTT cytotoxic effect on EB virus infection cancer cells (Raji). It counts as cell-based. The note with it: expression of TK −, MTT assay. Here is the method: as §3, §4
Another data set has as its system EB virus. The data set is described as follows: Acute infection of B lymphocytes with EB virus, EB virus DNA by real-time PCR. In kind it is cell-based. The note with it: B lymphocytes of a healthy person, cultured 2 weeks, PBMC#1287 and PBMC#5926, FIG. 2. On the procedure:
B lymphocytes were separated from the blood of a healthy person. The B lymphocytes were infected with an EB virus in the presence of the medicinal agent of the present invention and cultured for 2 weeks. Thereafter, the infected B cells were recovered and then washed, followed by extraction of DNA. The amount of EB virus DNA in the B lymphocytes was determined by real-time PCR and taken as a virus copy number.
For orientation: In qPCR the cycle at which signal appears reflects the starting amount.

The mark [2] stands for this setting: MTT assay, 5 days of culture, read-out: CC50 143B/hu-TK.

As to “1-(2-deoxy-2-fluoro-4-thio-β-D-arabinofuranosyl)cytosine [4′-S-FMAC]”, the CC50 came to 0.066 µM with 143B/EB virus-TK cells (MTT assay, 5 days of culture) and 0.04 µM in the data set on 143B/hu-TK cells (setting [2]).

As for `Cc1cn(C2(C#N)C[C@H](O)[C@@H](CO)O2)c(=O)[nH]c1=O` (stereo partly shown) [1′-CN-dT, 1-(C-cyano-2-deoxy-ribofuranosyl)thymine], the CC50 in the data set with 143B/EB virus-TK cells (MTT assay, 5 days of culture) was more than 100 µM; in the data set on 143B/hu-TK cells, more than 100 µM.

Regarding `O=c1[nH]c(=O)n([C@H]2C[C@H](O)[C@@H](CO)O2)cc1F` [5FdU, 5-fluoro-2′-deoxyuridine], in the data set on 143B/EB virus-TK cells (Homo sapiens, 143B, 120 h), the CC50 is 0.4 µM. Besides, the CC50 at 5 days in [1] turned out to be 0.27 µM.

`Nc1nc2c(ncn2COCCO)c(=O)[nH]1` [ACV, acyclovir]: in data set [1], the CC50 at 5 days was more than 100 µM.

Take `O=c1[nH]c(=O)n([C@H]2C[C@H](O)[C@@H](CO)O2)cc1C=CBr` [BVDU, 5-bromovinyl-2′-deoxyuridine]: in the data set on 143B/EB virus-TK cells (Homo sapiens, 143B, 120 h), the CC50 worked out at 122 µM. The CC50 at 5 days in data set [1] (setting [2]) is more than 300 µM.

On to `O=c1[nH]c(=O)n([C@@H]2O[C@H](CO)[C@@H](O)[C@@H]2O)cc1C=CBr` [BvaraU, 1-β-D-arabinofuranosyl-5-bromovinyluracil], for which the CC50 with 143B/EB virus-TK cells (Homo sapiens, 143B, 120 h) is more than 200 µM. The molecule further registered a CC50 at 5 days in data set [1] of more than 200 µM.

Regarding `Nc1nc(O)c2ncn(COC(CO)CO)c2n1` [GCV, ganciclovir], the “Cytotoxic effect on EB virus infection cancer cells” value in the data set on HS-Sultan cells was more than 100 µM; with Namalwa cells, more than 100 µM; in the data set with B95a cells, 36 µM; in the data set with NC37 cells, 27 µM; in the data set with Raji cells, 55 µM. For the same molecule, the CC50 in the data set on 143B/EB virus-TK cells (Homo sapiens, 143B, 120 h) was more than 100 µM. The molecule also displayed a CC50 at 5 days in [1] of more than 100 µM. The “Effect on cells with a chronic active EB virus infectious disease” value with KAI3 cells turned out to be 105 µM.

For `Cc1cn([C@@H]2S[C@H](CO)[C@@H](O)[C@@H]2F)c(=O)[nH]c1=O` [Medicinal agent of the invention, 1-(2-deoxy-2-fluoro-4-thio-β-D-arabinofuranosyl)-5-methyluracil], the “Amount of EB virus DNA in the B lymphocytes (virus copy number)” value in the data set with EB virus was “reduces the amount of EB virus DNA in the B lymphocytes and inhibits new infection”. Also, the “Cytotoxic effect on EB virus infection cancer cells” value with HS-Sultan cells is more than 100 µM; in the data set with Namalwa cells it was more than 100 µM; in the data set with B95a cells it was 2.2 µM; with NC37 cells, 2.1 µM; in the data set on Raji cells, 22 µM. Further, the CC50 in the data set on 143B/EB virus-TK cells (Homo sapiens, 143B, 120 h) turned out to be 0.11 µM. For the same molecule, in data set [1], the CC50 at 5 days is more than 300 µM. The “Effect on cells with a chronic active EB virus infectious disease” value in the data set with KAI3 cells worked out at 4.7 µM.
